{
  "source": "paper PMC4279406",
  "about": "“Simultaneous targeting of PI3Kδ and a PI3Kδ-dependent MEK1/2-Erk1/2 pathway for therapy in pediatric B-cell acute lymphoblastic leukemia” (Oncotarget, 2014)",
  "key": {"Raji cells [1]": {"test_system": "Raji cells", "experiment": "Cell cycle distribution (PI staining, FACS)", "type": "cell-based, human", "conditions": "24 h", "description": "Figure 3 PI3Kδ inhibition led to blockade of B cell leukemia cells proliferation via induction of cell cycle arrest and apoptosis Raji cells treated with X-370 for indicated times and at serial diluted concentrations were subjected to Annexin V-FITC/PI staining (A) and PI staining (B) and FACS analysis to show cell apoptosis and cell cycle distribution respectively. (C) X-370 inhibited proliferation of human leukemia primary cells. Freshly isolated human primary mononuclear cells from bone marrow samples of patients were treated with X-370 for 72 h and cell viability was assayed using CCK-8 assay. IC50s of each sample were plotted where 10 μM was assigned to specimens with IC50 >10 μM. Each symbol represents an individual patient sample. […]"}, "Raji cells [2]": {"test_system": "Raji cells", "experiment": "Caspase 3/7 activity assay", "type": "cell-based, human", "protocol": "Simultaneous targeting of PI3Kδ and a PI3Kδ-dependent MEK1/2-Erk1/2 pathway for therapy in pediatric B-cell acute lymphoblastic […]\nCells were treated as indicated conditions and then subjected to lysate to perform standard Western blot as described previously1. Briefly, whole-cell lysates and SDS-loading buffer diluted cell fractions were analyzed on SDS-PAGE gels. Transfer to nitrocellulose membranes, nonfat milk blocking, probing with indicated primary antibodies and the corresponding HRP-conjugated second antibodies.\nChemiluminescence were performed and captured using ImageQuant LAS 4000 (GE healthcare Life Sciences, Piscataway, NJ, USA) and band intensity was measure both with ImageQuant™ TL (GE Healthcare Life Sciences) 2.\nCaspase 3/7 activity assay\nRaji cells were treated with or without X-370 at 1 μM, 5μM and 10 μM for 24, 48 and 72 hours, thenwere measured using the Caspase-Glo® 3/7 Assay (Promega, US) following the protocol and relative caspase-3/7 activity was normalized to cell number which DMSO control was the base line.\n5-bromo-2'-deoxyuridine (BrdU) incorporation Assay\n5-bromo-2'-deoxyuridine (BrdU) incorporation was performed using FITC BrdU Flow Kit (BD Pharmingen, San Diego, CA) according to the provided protocol.\nFigure S1;. CAL-101 docked to the crystal structure of PI3Kδ. […]"}},
  "data": [
    {"smiles": "O=C(N1CCCC1)N1CCC(n2cnc3c(-n4c(C(F)F)nc5ccccc54)nc(N4CCOCC4)nc32)CC1", "note": "[X-370]", "values": [
      {"measurement": "cell cycle distribution", "setting": "Raji cells [1]", "result": "increase in cell population in G1 phase"},
      {"measurement": "concentration at which caspase 3/7 activity increased", "setting": "Raji cells [2]", "result": "≥ 5", "unit": "µM"}
    ]}
  ]
}
